Experimental data reported in patent US12568972B2, “Pyridazinol compounds and derivatives, preparation methods, herbicidal compositions and applications thereof” (Qingdao Kingagroot Chemical Compound Co., Ltd., priority 2018, dated 2026).

Experiments:
Assay in all cases: Post-emergence test, weed control effect
Assay type in all cases: in vivo
Settings in all cases: after 3 weeks
Chenopodiaceae = test system: Chenopodiaceae
Outline: (§1)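 Activity is expressed as a level from 0 (no effect) to 10 (plant dead), each step matching a further 10% fresh-weight inhibition, assessed 3 weeks post-treatment. Treatment: spray at 2-3 leaf stage of pot-grown plants, compound in acetone, Tween-80 and water with 80% vegetable oil methyl ester synergist at 1500 g/ha.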

Rorippa indica = test system: Rorippa indica
Outline: as §1

Amaranthus retroflexus = test system: Amaranthus retroflexus
Outline: as §1

Veronica polita = test system: Veronica polita
Outline: as §1

Oc1cc(C(F)(F)F)nnc1-c1ccc(Cl)c(Cl)c1Cl [Compound 753]
10: weed control effect (activity level), Chenopodiaceae (Chenopodiaceae; Dose 3000 g/ha) | weed control effect (activity level), Rorippa indica (Rorippa indica; Dose 3000 g/ha) | weed control effect (activity level), Amaranthus retroflexus (Amaranthus retroflexus; Dose 3000 g/ha) | weed control effect (activity level), Veronica polita (Veronica polita; Dose 3000 g/ha)

COc1cnn(C)c1-c1nnc(C(F)(F)F)cc1O [Compound 811]
10: weed control effect (activity level), Chenopodiaceae (Chenopodiaceae; Dose 3000 g/ha) | weed control effect (activity level), Rorippa indica (Rorippa indica; Dose 3000 g/ha) | weed control effect (activity level), Amaranthus retroflexus (Amaranthus retroflexus; Dose 3000 g/ha) | weed control effect (activity level), Veronica polita (Veronica polita; Dose 3000 g/ha)

CC(C)CC(CC(C)C)=NOc1cc(C(F)(F)F)nnc1-c1ccc(Cl)cc1 [Compound 1-180]
10: weed control effect, Chenopodiaceae (activity level) (Chenopodiaceae; Dose 3000 g/ha) | weed control effect, Rorippa indica (activity level) (Rorippa indica; Dose 3000 g/ha) | weed control effect, Amaranthus retroflexus (activity level) (Amaranthus retroflexus; Dose 3000 g/ha) | weed control effect, Veronica polita (activity level) (Veronica polita; Dose 3000 g/ha)

C#Cc1cc(OC2CC2)ncc1-c1nnc(C(F)(F)F)cc1O [Compound 231]
10: weed control effect (activity level), Chenopodiaceae (Chenopodiaceae; dose 2000 g/ha) | weed control effect (activity level), Rorippa indica (Rorippa indica; dose 2000 g/ha) | weed control effect (activity level), Amaranthus retroflexus (Amaranthus retroflexus; dose 2000 g/ha) | weed control effect (activity level), Veronica polita (Veronica polita; dose 2000 g/ha)

CC(C)=NOc1cc(C(F)(F)F)nnc1-c1ccc(F)c(F)c1 [Compound 1-169]
10: weed control effect, Chenopodiaceae (activity level) (Chenopodiaceae; Dose 3000 g/ha) | weed control effect, Rorippa indica (activity level) (Rorippa indica; Dose 3000 g/ha) | weed control effect, Amaranthus retroflexus (activity level) (Amaranthus retroflexus; Dose 3000 g/ha) | weed control effect, Veronica polita (activity level) (Veronica polita; Dose 3000 g/ha)

CCc1cc(-c2nnc(C(F)(F)F)cc2O)c(F)cc1[N+](=O)[O-] [Compound 179]
10: weed control effect (activity level), Chenopodiaceae (Chenopodiaceae; dose 2000 g/ha) | weed control effect (activity level), Rorippa indica (Rorippa indica; dose 2000 g/ha) | weed control effect (activity level), Amaranthus retroflexus (Amaranthus retroflexus; dose 2000 g/ha) | weed control effect (activity level), Veronica polita (Veronica polita; dose 2000 g/ha)

Oc1cc(C(F)(F)F)nnc1-c1ccnc(Cl)c1Cl [Compound 222]
10: weed control effect (activity level), Chenopodiaceae (Chenopodiaceae; dose 2000 g/ha) | weed control effect (activity level), Rorippa indica (Rorippa indica; dose 2000 g/ha) | weed control effect (activity level), Amaranthus retroflexus (Amaranthus retroflexus; dose 2000 g/ha) | weed control effect (activity level), Veronica polita (Veronica polita; dose 2000 g/ha)

Oc1cc(C(F)(F)F)nnc1-c1cccc2ccccc12 [Compound 380]
10: weed control effect (activity level), Chenopodiaceae (Chenopodiaceae; dose 2000 g/ha) | weed control effect (activity level), Rorippa indica (Rorippa indica; dose 2000 g/ha) | weed control effect (activity level), Amaranthus retroflexus (Amaranthus retroflexus; dose 2000 g/ha) | weed control effect (activity level), Veronica polita (Veronica polita; dose 2000 g/ha)

Oc1cc(C(F)(F)F)nnc1-c1ccc2ccccc2c1 [Compound 370]
10: weed control effect (activity level), Chenopodiaceae (Chenopodiaceae; dose 2000 g/ha) | weed control effect (activity level), Rorippa indica (Rorippa indica; dose 2000 g/ha) | weed control effect (activity level), Amaranthus retroflexus (Amaranthus retroflexus; dose 2000 g/ha) | weed control effect (activity level), Veronica polita (Veronica polita; dose 2000 g/ha)

COc1ccc(-c2nnc(C(F)(F)F)cc2O)cc1[N+](=O)[O-] [Compound 768]
10: weed control effect (activity level), Chenopodiaceae (Chenopodiaceae; Dose 3000 g/ha) | weed control effect (activity level), Rorippa indica (Rorippa indica; Dose 3000 g/ha) | weed control effect (activity level), Amaranthus retroflexus (Amaranthus retroflexus; Dose 3000 g/ha) | weed control effect (activity level), Veronica polita (Veronica polita; Dose 3000 g/ha)

CCc1cccc(-c2nnc(C(F)(F)F)cc2OS(=O)(=O)c2nccs2)c1 [Compound 1-145]
10: weed control effect, Chenopodiaceae (activity level) (Chenopodiaceae; Dose 3000 g/ha) | weed control effect, Rorippa indica (activity level) (Rorippa indica; Dose 3000 g/ha) | weed control effect, Amaranthus retroflexus (activity level) (Amaranthus retroflexus; Dose 3000 g/ha) | weed control effect, Veronica polita (activity level) (Veronica polita; Dose 3000 g/ha)

CC(C)CC(=O)Oc1cc(C(F)(F)F)nnc1-c1cccc(C(F)(F)F)c1 [Compound 1-8]
10: weed control effect, Chenopodiaceae (activity level) (Chenopodiaceae; Dose 3000 g/ha) | weed control effect, Rorippa indica (activity level) (Rorippa indica; Dose 3000 g/ha) | weed control effect, Amaranthus retroflexus (activity level) (Amaranthus retroflexus; Dose 3000 g/ha) | weed control effect, Veronica polita (activity level) (Veronica polita; Dose 3000 g/ha)

O=C(Oc1cc(C(F)(F)F)nnc1-c1ccc(C(F)(F)F)cc1)c1cccc(OC(F)(F)F)c1 [Compound 1-88]
10: weed control effect, Chenopodiaceae (activity level) (Chenopodiaceae; Dose 3000 g/ha) | weed control effect, Rorippa indica (activity level) (Rorippa indica; Dose 3000 g/ha) | weed control effect, Amaranthus retroflexus (activity level) (Amaranthus retroflexus; Dose 3000 g/ha) | weed control effect, Veronica polita (activity level) (Veronica polita; Dose 3000 g/ha)

Cc1cc(Cl)ncc1-c1nnc(C(F)(F)F)cc1O [Compound 1018]
10: weed control effect (activity level), Chenopodiaceae (Chenopodiaceae; Dose 3000 g/ha) | weed control effect (activity level), Rorippa indica (Rorippa indica; Dose 3000 g/ha) | weed control effect (activity level), Amaranthus retroflexus (Amaranthus retroflexus; Dose 3000 g/ha) | weed control effect (activity level), Veronica polita (Veronica polita; Dose 3000 g/ha)

Oc1cc(C(F)(F)F)nnc1-c1cnc(Cl)c(F)c1 [Compound 1006]
10: weed control effect (activity level), Chenopodiaceae (Chenopodiaceae; Dose 3000 g/ha) | weed control effect (activity level), Rorippa indica (Rorippa indica; Dose 3000 g/ha) | weed control effect (activity level), Amaranthus retroflexus (Amaranthus retroflexus; Dose 3000 g/ha) | weed control effect (activity level), Veronica polita (Veronica polita; Dose 3000 g/ha)

CN(C)c1ccc(-c2nnc(C(F)(F)F)cc2O)cc1 [Compound 97]
10: weed control effect (activity level), Chenopodiaceae (Chenopodiaceae; dose 1000 g/ha) | weed control effect (activity level), Rorippa indica (Rorippa indica; dose 1000 g/ha) | weed control effect (activity level), Amaranthus retroflexus (Amaranthus retroflexus; dose 1000 g/ha) | weed control effect (activity level), Veronica polita (Veronica polita; dose 1000 g/ha)

Oc1cc(C(F)(F)F)nnc1-c1cc(C(F)(F)F)co1 [Compound 418]
10: weed control effect (activity level), Chenopodiaceae (Chenopodiaceae; Dose 3000 g/ha) | weed control effect (activity level), Rorippa indica (Rorippa indica; Dose 3000 g/ha) | weed control effect (activity level), Amaranthus retroflexus (Amaranthus retroflexus; Dose 3000 g/ha) | weed control effect (activity level), Veronica polita (Veronica polita; Dose 3000 g/ha)

Oc1cc(C(F)(F)F)nnc1-c1ccccc1Br [Compound 772]
10: weed control effect (activity level), Chenopodiaceae (Chenopodiaceae; Dose 3000 g/ha) | weed control effect (activity level), Rorippa indica (Rorippa indica; Dose 3000 g/ha) | weed control effect (activity level), Amaranthus retroflexus (Amaranthus retroflexus; Dose 3000 g/ha) | weed control effect (activity level), Veronica polita (Veronica polita; Dose 3000 g/ha)
